According to patent US20250346585A1 (Alexion Pharmaceuticals, Inc., priority 2022, published 2025):

target: Human complement C1s enzyme (Homo sapiens (Human), UniProt P09871); assay: Human C1s enzyme assay; format: biochemical; conditions: Human C1s enzyme assay of Example 3; read-out: IC50 (Stars)
In short: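 IC50 derived by nonlinear regression of rate versus concentration, with rate taken from A405 kinetics (30 s intervals, 30 min) after adding 100 μM each Z-L-Lys-SBzl and DTNB. C1s from human serum, 1.16 nM, exposed to compound for 5 min at RT beforehand; buffer 50 mM Tris, 1 M NaCl, pH 7.5.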

Sequence of Human complement C1s enzyme (P09871 438-688 limits assumed): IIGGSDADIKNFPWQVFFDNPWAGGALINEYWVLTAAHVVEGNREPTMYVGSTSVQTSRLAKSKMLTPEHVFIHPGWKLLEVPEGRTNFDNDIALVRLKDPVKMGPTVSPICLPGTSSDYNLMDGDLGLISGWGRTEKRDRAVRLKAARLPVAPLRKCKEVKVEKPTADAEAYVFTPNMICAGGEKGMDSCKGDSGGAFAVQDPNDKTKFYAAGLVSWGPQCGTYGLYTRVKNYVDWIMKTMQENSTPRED
Sequence of Human complement C1s enzyme (P09871 16-437 partner limits assumed): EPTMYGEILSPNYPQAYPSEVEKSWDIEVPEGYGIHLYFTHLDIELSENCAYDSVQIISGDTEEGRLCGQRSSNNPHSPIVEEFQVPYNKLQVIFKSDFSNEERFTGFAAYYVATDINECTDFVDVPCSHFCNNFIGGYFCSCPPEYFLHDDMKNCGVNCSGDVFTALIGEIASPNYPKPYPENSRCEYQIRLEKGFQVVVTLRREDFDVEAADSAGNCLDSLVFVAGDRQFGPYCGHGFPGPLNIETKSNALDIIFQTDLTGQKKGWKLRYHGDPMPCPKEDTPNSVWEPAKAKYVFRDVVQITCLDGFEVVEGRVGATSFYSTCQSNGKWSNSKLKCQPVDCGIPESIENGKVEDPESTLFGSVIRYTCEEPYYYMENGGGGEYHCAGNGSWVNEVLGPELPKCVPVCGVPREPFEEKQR

Row | SMILES | IC50 [nM]
1 | N=C(N)c1csc(CNC(=O)[C@@H]2C[C@](F)(CF)CN2C(=O)CNC(=O)c2ccc3c(c2)-c2ccccc2C3(F)F)c1 [Compound 52, (2S,4R)—N-((4-carbamimidoylthiophen-2-yl)methyl)-1-((9,9-difluoro-9H-fluorene-3-carbonyl)glycyl)-4-fluoro-4-(fluoromethyl)pyrrolidine-2-carboxamide] | < 100
2 | C[C@H](O)[C@H](O)[C@@H](O)[C@@H](O)CNCC(=O)NCCOC[C@@]12C[C@@H]1N(C(=O)CNC(=O)c1ccc3c(c1)-c1ccccc1C3(F)F)[C@H](C(=O)N[C@H](C)c1cc(C(=N)N)cs1)C2 [Compound 89, (1S,3S,5R)—N—((R)-1-(4-carbamimidoylthiophen-2-yl)ethyl)-2-((9,9-difluoro-9H-fluorene-3-carbonyl)glycyl)-5-((2-(2-(((2S,3S,4S,5S)-2,3,4,5-tetrahydroxyhexyl)amino)acetamido)ethoxy)methyl)-2-azabicyclo[3.1.0]hexane-3-carboxamide] | < 100
3 | O=C(NCC(=O)N1CC2(C[C@H]1C(=O)NCc1cc(-c3cc(C(F)(F)F)[nH]n3)cs1)OCCO2)c1ccc(Oc2ccc(F)cc2)cc1 [Compound 76, (S)-7-((4-(4-fluorophenoxy)benzoyl)glycyl)-N-((4-(5-(trifluoromethyl)-1H-pyrazol-3-yl)thiophen-2-yl)methyl)-1,4-dioxa-7-azaspiro[4.4]nonane-8-carboxamide] | > 1000
4 | C[C@@H](NC(=O)[C@@H]1CC2(CN1C(=O)CNC(=O)c1ccc3c(c1)-c1ccccc1C3(F)F)OCCO2)c1cc(-c2nccs2)cs1 [Compound 114, (S)-7-((9,9-difluoro-9H-fluorene-3-carbonyl)glycyl)-N—((R)-1-(4-(thiazol-2-yl)thiophen-2-yl)ethyl)-1,4-dioxa-7-azaspiro[4.4]nonane-8-carboxamide] | > 1000

same assay, conditions: Human complement C1s enzyme 1.16 nM, substrate Z-L-Lys-SBzl 100 μM, assay of Example 3; read-out: IC50 (Stars)

Row | SMILES | IC50 [nM]
5 | C[C@@H](NC(=O)[C@@H]1C[C@]2(Cn3cncn3)C[C@@H]2N1C(=O)CNC(=O)c1ccc2c(c1)-c1ccccc1C2(F)F)c1cc(C(=N)N)cs1 [Compound 281, (1S,3S,5S)-5-((1H-1,2,4-triazol-1-yl)methyl)-N—((R)-1-(4-carbamimidoylthiophen-2-yl)ethyl)-2-((9,9-difluoro-9H-fluorene-3-carbonyl)glycyl)-2-azabicyclo[3.1.0]hexane-3-carboxamide] | < 100
6 | C[C@@H](NC(=O)[C@@H]1C[C@](F)(CF)CN1C(=O)CNC(=O)c1ccc2c(c1)oc1ccccc12)c1cc(C(=N)N)cs1 [Compound 372, (2S,4R)—N—((R)-1-(4-carbamimidoylthiophen-2-yl)ethyl)-1-((dibenzo[b,d]furan-3-carbonyl)glycyl)-4-fluoro-4-(fluoromethyl)pyrrolidine-2-carboxamide] | < 100
7 | C[C@@H](NC(=O)[C@@H]1C[C@H](c2cccnc2)CN1C(=O)CNC(=O)c1ccc2c(c1)-c1ccccc1C2(F)F)c1cc(C(=N)N)cs1 [Compound 355, (2S,4R)—N—((R)-1-(4-carbamimidoylthiophen-2-yl)ethyl)-1-((9,9-difluoro-9H-fluorene-3-carbonyl)glycyl)-4-(pyridin-3-yl)pyrrolidine-2-carboxamide] | < 100
8 | C[C@@H](NC(=O)[C@@H]1CC2(CN1C(=O)CNC(=O)c1ccc3nc4ccccc4cc3c1)OCCO2)c1cc(C(=N)N)cs1 [Compound 391, (S)-7-((acridine-2-carbonyl)glycyl)-N—((R)-1-(4-carbamimidoylthiophen-2-yl)ethyl)-1,4-dioxa-7-azaspiro[4.4]nonane-8-carboxamide] | < 100
9 | C[C@@H](NC(=O)[C@@H]1C[C@@H](S(C)(=O)=O)CN1C(=O)CNC(=O)c1ccc2c(c1)C(F)(F)c1ccccc1-2)c1cc(C(=N)N)cs1 [Compound 265, (2S,4R)—N—((R)-1-(4-carbamimidoylthiophen-2-yl)ethyl)-1-((9,9-difluoro-9H-fluorene-2-carbonyl)glycyl)-4-(methylsulfonyl)pyrrolidine-2-carboxamide] | < 100
